Experimental data from patent US20240317711A1, “AURKA SELECTIVE DEGRADATION INDUCING COMPOUND” (UPPTHERA INC., priority 2021, published 2024).

Target: T1, AURKA (Homo sapiens, UniProt O14965)
T1 construct: An MDA-MB-231 cell line was purchased from the Korea Cell Line Bank; endogenous in cells; host or cells: MDA-MB-231
T1 sequence (O14965 1-403): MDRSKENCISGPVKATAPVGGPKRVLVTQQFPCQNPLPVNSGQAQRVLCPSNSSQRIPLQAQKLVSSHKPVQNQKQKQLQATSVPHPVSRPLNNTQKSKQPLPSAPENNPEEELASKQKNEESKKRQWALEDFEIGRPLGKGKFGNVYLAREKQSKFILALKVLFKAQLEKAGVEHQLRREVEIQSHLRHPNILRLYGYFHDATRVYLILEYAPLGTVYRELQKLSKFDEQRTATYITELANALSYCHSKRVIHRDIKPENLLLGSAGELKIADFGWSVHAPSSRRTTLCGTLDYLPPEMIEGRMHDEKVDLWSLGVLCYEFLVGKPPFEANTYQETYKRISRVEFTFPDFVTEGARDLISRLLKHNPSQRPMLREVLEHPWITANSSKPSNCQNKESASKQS
Experiment: Western blotting of AURKA degradation after 24 hours of compound treatment of MDA-MB-231 cell line
Type: cell-based
Conditions: compound 0.1 μM, MDA-MB-231 cells, Western blot
Excerpt: An MDA-MB-231 cell line was purchased from the Korea Cell Line Bank. The passage of cultured cells was maintained within P50.
For cell counting, a cell counter (Catalog #AMQAX1000) from Thermo and a 0.4% Trypan blue solution were used.
For cell culture, there were used RPMI (Gibco, Cat. No. 22400-089; Lot. No. 2323633), FBS (Gibco, Cat. No. 16000044; Lot. No. 2454168P), Penicillin/Streptomycin (PS) (Gibco, Cat. No. 15140-122; Lot. No. 2321150), 100 mm culture plate (SPL, Cat. No. 20100), 6-well culture plate (SPL, Cat. No. 30006), PBS pH7.4 (Gibco, Cat. No. 10010-023; Lot. No. 2380329), counting chamber (Hematocytometer) (Hirschmann, Cat. No. 8100204), and 0.4% trypan blue solution (DYNEBIO, Cat. No. CBT3710; Lot. No. 20211201).
3×10^5 cells were seeded in each well of a 12-well plate (SPL), and the cells were cultured in a total culture medium volume of 1 mL. […]
Next, a standard curve was obtained using the BCA assay and the protein mass in the lysate was quantified by substituting the obtained standard curve. The mixture was incubated at 37° C. for 30 minutes using 20 μL of a standard or sample solution and 200 μL of a BCA or Bradford solution, and absorbance was measured at 562 nm. […]

## O=C1CCC(N2C(=O)c3cccc(NCCCCCCN4CCN(C(=O)Cc5ccc(Nc6ncc(F)c(Nc7ccc(C(=O)Nc8ccccc8Cl)cc7)n6)cc5)CC4)c3C2=O)C(=O)N1 (stereo not shown) [Compound 14]
  AURKA protein degradation activity: ≥ 95%
